Usually Ki stands for the equilibrium dissociation constant of an inhibitor or competing ligand from its target. Low readings indicate tighter binding, high ones weaker binding. The term Km denotes the substrate concentration at which the rate is half of its maximum. Usually stoichiometry N stands for a count of units in the complex or per binding partner.

The results in this text go back to PMC4552316 (Nature chemical biology, 2011).

In data set [1] the target is T1, human GMPR type 2 (hGMPR2) (Homo sapiens, UniProt Q9P2T1).
T1 sequence (Q9P2T1 1-348): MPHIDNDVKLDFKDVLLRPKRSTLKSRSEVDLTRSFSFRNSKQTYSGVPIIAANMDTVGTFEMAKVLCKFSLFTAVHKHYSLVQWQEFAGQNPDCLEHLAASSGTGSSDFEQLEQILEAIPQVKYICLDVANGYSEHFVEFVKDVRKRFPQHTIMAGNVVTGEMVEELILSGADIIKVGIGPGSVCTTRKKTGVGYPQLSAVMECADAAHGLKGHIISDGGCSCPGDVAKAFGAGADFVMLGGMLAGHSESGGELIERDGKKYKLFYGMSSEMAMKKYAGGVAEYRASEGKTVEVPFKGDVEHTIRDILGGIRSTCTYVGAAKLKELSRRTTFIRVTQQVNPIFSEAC
The data set is described as follows: X-ray crystal structure of E•IMP•NADPH, […] Å. The class given is binding.

For data set [2], the target named is E. coli GMPR (EcGMPR), GMP reductase (Escherichia coli, UniProt P60560). Description: spectrophotometric enzyme inhibition assay. The format is biochemical.
E. coli GMPR (EcGMPR), GMP reductase, sequence (P60560 whole entry): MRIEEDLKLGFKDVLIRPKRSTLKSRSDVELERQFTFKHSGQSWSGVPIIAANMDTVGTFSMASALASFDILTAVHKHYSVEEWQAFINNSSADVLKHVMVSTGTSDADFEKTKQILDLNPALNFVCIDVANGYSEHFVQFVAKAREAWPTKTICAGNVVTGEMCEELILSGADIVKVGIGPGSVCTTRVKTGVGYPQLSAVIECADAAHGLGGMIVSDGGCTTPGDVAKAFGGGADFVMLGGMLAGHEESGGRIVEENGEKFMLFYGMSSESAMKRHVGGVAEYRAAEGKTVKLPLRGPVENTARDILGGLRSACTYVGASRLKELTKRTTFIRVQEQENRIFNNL
Data set [3] concerns CC(=O)C1=CN([C@@H]2O[C@H](COP(=O)(O)OP(=O)(O)OC[C@H]3O[C@@H](n4cnc5c(N)ncnc54)[C@H](OP(=O)(O)O)[C@@H]3O)[C@@H](O)[C@H]2O)C=CC1. Description: purified protein. Particulars: 2-Cl-IMP (co-substrate); varied: cofactor.
Data set [4] relates to O=c1[nH]c(Cl)nc2c1ncn2[C@@H]1O[C@H](COP(=O)(O)O)[C@@H](O)[C@H]1O. The data set is described as follows: purified protein. Particulars: NADPH or NADP+ catalytic Cys186 (E-XMP* intermediate; none with C186A).
The data set “crystal structure” deals with the molecule itself. The data set is described as follows: crystal structure.

For `NC(=O)C1=CN([C@@H]2O[C@H](COP(=O)(O)OP(=O)(O)OC[C@H]3O[C@@H](n4cnc5c(N)ncnc54)[C@H](OP(=O)(O)O)[C@@H]3O)[C@@H](O)[C@H]2O)C=CC1` [NADPH], the “X-ray crystal structure of E•IMP•NADPH, 1.7 Å” value in data set [1] was “NADPH was found in two conformations in the seven monomers, an "in" conformation and an "out" conformation”.

Take `NC(=O)c1ncn([C@@H]2O[C@H](COP(=O)(O)O)[C@@H](O)[C@H]2O)n1` [Ribavirin monophosphate]: affinity in data set [2] was put at a Ki of 98 ± 25 µM.

Turning to `NC(=O)c1ncn([C@@H]2O[C@H](COP(=O)(O)O)[C@@H](O)[C@H]2O)c1O` [mizoribine monophosphate], the Ki in data set [2] was 0.015 ± 0.003 µM.

Regarding “E. coli GMPR (EcGMPR), GMP reductase (Escherichia coli K-12)”, the Km in data set [3] was found to be 11.0 ± 2.0 µM; in data set [4] it was 7.8 ± 1.1 µM.

B1: human GMP reductase type 2 (enzyme)
chain: LDFKDVLLRPKRSTLKSRSEVDLTRSFSFRNSKQTYSGVPIIAANMDTVGTFEMAKVLCKFSLFTAVHKHYSLVQWQEFAGQNPDCLEHLAASSGTGSSDFEQLEQILEAIPQVKYICLDVANGYSEHFVEFVKDVRKRFPQHTIMAGNVVTGEMVEELILSGADIIKVGIGPGSVCTTRKKTGVGYPQLSAVMECADAAHGLKGHIISDGGCSCPGDVAKAFGAGADFVMLGGMLAGHSESGGELIERDGKKYKLFYGMSSEMAMKKYAGGVAEYRASEGKTVEVPFKGDVEHTIRDILGGIRSTCTYVGAAKLKELSRRTTFIRVTQQVN
Regarding B1, the “stoichiometry N” value in “crystal structure” amounted to 4.
